The values below come from US20100204167A1, “ACTIVE COMPOUND COMBINATIONS HAVING INSECTICIDAL AND ACARICIDAL PROPERTIES” (priority 2006, published 2010).

In assay [1] the test system is Phaedon cochleariae larvae. The experiment in a line: Phaedon cochleariae larvae test (Example D, spray). In kind it is in vivo. The settings on record: single active compound.
Another assay deals with Aphis gossypii. The experiment in a line: Aphis gossypii test (cotton leaves dipped). In kind it is in vivo. The settings on record: single active compound.
In assay [2] the test system is Myzus persicae. The experiment in a line: Myzus persicae test (cabbage leaves dipped). It counts as in vivo. The note with it: single active compound.
In assay [3] the test system is Phaedon cochleariae larvae. Kind of assay: Phaedon cochleariae larvae test (Example G). The note with it: 0.8 ppm, single active compound.
In assay [4] the test system is Myzus persicae. Kind of assay: Myzus persicae test (cabbage leaves sprayed). In kind it is in vivo. The settings on record: single active compound.
Assay [5] deals with Spodoptera frugiperda larvae. The experiment in a line: Spodoptera frugiperda larvae test (spray). In kind it is in vivo. The settings on record: single active compound.
The subject of another assay is Tetranychus urticae. Kind of assay: Tetranychus test (OP-resistant/spray treatment). In kind it is in vivo. The note with it: single active compound. The method, then: Disks of bean leaves (Phaseolus vulgaris) which are infested by all stages of the greenhouse red spider mite (Tetranychus urticae) are sprayed with an active compound preparation of the desired concentration.
After the desired period of time, the activity in % is determined.

Turning to `CCOCn1c(-c2ccc(Cl)cc2)c(C#N)c(Br)c1C(F)(F)F` [chlorfenapyr], the “Kill in % after 2d” value in assay [1] (4 g/ha) turned out to be 0%.
For the compound `CO[C@H]1CC[C@]2(CC1)NC(=O)C(c1cc(C)ccc1C)=C2O` [compound (I-1)], the “Kill in % after 6d” value in the assay with Aphis gossypii (100 ppm) came out at 70%; in the assay on Myzus persicae [2] (4 ppm), 5%; in assay [3] it was 0%.
As for `COC1CCC2(CC1)NC(=O)C(c1cc(C)ccc1C)=C2O` (centres unmarked) [compound (I-1-a)], the results for the “Kill in % after 6d” value (in the assay on Aphis gossypii (100 ppm); in the assay on Myzus persicae [2] (4 ppm); in assay [3]) were 50%, 20% and 0%, respectively.
Regarding `CCOC(=O)OC1=C(c2cc(C)ccc2C)C(=O)N[C@]12CC[C@@H](OC)CC2` [compound (I-2)], the “Kill in % after 6d” value with Aphis gossypii (0.8 ppm) turned out to be 0%; in the assay on Myzus persicae [4] (0.8 g/ha) it was 50%; in the assay with Myzus persicae [2] (0.8 ppm) it was 10%; in assay [1] (4 g/ha), 0%; in assay [1] (20 g/ha) it was 0%. Further, in the assay on Myzus persicae [4] (20 g/ha), the “Kill in % after 1d” value was 0%. Moreover, the “Kill in % after 2d” value in assay [1] (20 g/ha) was determined as 0%; in assay [5] (20 g/ha) it was 17%; in assay [5] (100 g/ha), 83%; in the assay on Tetranychus urticae (0.8 g/ha), 20%; in the assay on Tetranychus urticae (20 g/ha), 10%.
As for `CCOC(=O)OC1=C(c2cc(C)ccc2C)C(=O)NC12CCC(OC)CC2` (centres unmarked) [compound (I-2-a)], the “Kill in % after 6d” value was determined as 0% with Aphis gossypii (0.8 ppm); 50% in the assay with Myzus persicae [4] (0.8 g/ha); 0% in the assay with Myzus persicae [2] (0.8 ppm); 0% in assay [1] (4 g/ha); 0% in assay [1] (20 g/ha). For the same compound, the “Kill in % after 1d” value in the assay on Myzus persicae [4] (20 g/ha) turned out to be 0%. The “Kill in % after 2d” value in assay [1] (20 g/ha) was 0%; in assay [5] (20 g/ha), 17%; in assay [5] (100 g/ha), 83%; in the assay on Tetranychus urticae (0.8 g/ha) it was 0%; in the assay with Tetranychus urticae (20 g/ha), 0%.
With `CC(C)c1cc(Oc2ccccc2)cc(C(C)C)c1NC(=S)NC(C)(C)C` [diafenthiuron], in the assay on Myzus persicae [4] (4 g/ha), the “Kill in % after 6d” value was found to be 60%. Moreover, the “Kill in % after 2d” value in assay [5] (100 g/ha) is recorded as 50%.
Consider `Cc1nn(C)c(Oc2ccccc2)c1C=NOCc1ccc(C(=O)OC(C)(C)C)cc1` [fenpyroximate], for which the “Kill in % after 1d” value in the assay on Myzus persicae [4] (20 g/ha) came out at 20%. In addition, in assay [1] (20 g/ha), the “Kill in % after 6d” value came to 33%. Besides, the “Kill in % after 2d” value in assay [5] (100 g/ha) is reported as 50%.
Turning to `CC(C)(C)c1ccc(CSc2cnn(C(C)(C)C)c(=O)c2Cl)cc1` [pyridaben], the “Kill in % after 6d” value in assay [1] (4 g/ha) turned out to be 33%. Also, the “Kill in % after 2d” value in the assay with Tetranychus urticae (0.8 g/ha) is 0%.
As for `CCc1nn(C)c(C(=O)NCc2ccc(C(C)(C)C)cc2)c1Cl` [tebufenpyrad], the “Kill in % after 6d” value in assay [1] (4 g/ha) turned out to be 0%.
For abamectin, the “Kill in % after 6d” value came to 45% in the assay with Aphis gossypii (0.8 ppm), 10% with Myzus persicae [2] (0.8 ppm) and 65% in the assay on Myzus persicae [2] (4 ppm).
With milbemectin, the “Kill in % after 1d” value in the assay with Myzus persicae [4] (0.8 g/ha) turned out to be 0%.
Regarding spinosad, the “Kill in % after 6d” value (in the assay with Aphis gossypii (100 ppm); in assay [3]) was 20% throughout. Besides, in the assay on Tetranychus urticae (4 g/ha), the “Kill in % after 2d” value is recorded as 10%.
